# Assay results taken from ChEMBL document CHEMBL4184320, “Optimization of Selective Mitogen-Activated Protein Kinase Interacting Kinases 1 and 2 Inhibitors for the Treatment of Blast Crisis Leukemia” (J Med Chem, 2018).
# What was measured:
# [1] = Apparent permeability of the compound across apical side to basolateral side in human Caco2 cells by LC-MS/MS analysis; format: ADME, cell-based; details: Caco-2
# in vitro [2] = details: human, liver microsomes
# Description: Half life in human liver microsomes at 1 uM in presence of NADPH by LC-MS/MS analysis
# [3] = Octanol-phosphate buffer partition coefficient, logD of compound at pH 7.4 by HPLC-UV analysis; format: physicochemical
# [4] = target: MAP kinase-interacting serine/threonine-protein kinase 2 (Homo sapiens, UniProt Q9HBH9)
# Description: Inhibition of GST-tagged MNK2 (72 to 385 residues) (unknown origin) expressed in Escherichia coli BL21(DE3) using JH3 peptide as substrate preincubated for 10 mins followed by substrate and ATP addition measured after 60 mins
# Cytochrome P450 2D6 = Cytochrome P450 2D6 (Homo sapiens, UniProt P10635); assay: Inhibition of CYP2D6 in human liver microsomes using dextromethorphan as substrate preincubated for 5 mins followed by NADPH addition by LC-MS/MS analysis; format: ADME
# [5] = target: MAP kinase-interacting serine/threonine-protein kinase 1 (Homo sapiens, UniProt Q9BUB5)
# Description: Inhibition of GST-tagged MNK1 (37 to 341 residues) (unknown origin) expressed in Escherichia coli BL21(DE3) using JH3 peptide as substrate preincubated for 10 mins followed by substrate and ATP addition measured after 60 mins
# [6] = Permeability of the compound by PAMPA; format: ADME; details: read-out: permeability
# [7] = target: MAP kinase-interacting serine/threonine-protein kinase 1/2 (Homo sapiens, UniProt Q9HBH9+Q9BUB5); assay: Inhibition of MNK1/2 in human HeLa cells assessed as decrease in eIF4E phosphorylation at Ser209 after 2 hrs by AlphaScreen assay; format: cell-based
# Cytochrome P450 3A4 = Cytochrome P450 3A4 (Homo sapiens, UniProt P08684)
# Description: Inhibition of CYP3A4 in human liver microsomes using midazolam as substrate preincubated for 5 mins followed by NADPH addition measured after 5 mins by LC-MS/MS analysis
# [8] = Efflux ratio of apparent permeability in human Caco2 cells by LC-MS/MS analysis; format: ADME, cell-based; details: Caco-2
# [9] = Thermodynamic solubility of the compound at pH 4 to 7.4 pION buffer after 18 hrs by UV spectrophotometric analysis; format: physicochemical; details: read-out: Therm_solubility
# in vitro [10] = details: mouse, liver microsomes
# Description: Half life in mouse liver microsomes at 1 uM in presence of NADPH by LC-MS/MS analysis
# [11] = target: Dual specificity mitogen-activated protein kinase kinase 2 (Homo sapiens) (UniProt P36507); assay: Inhibition of human MEK2 (M1 to V400 residues) expressed in mammalian expression system at 1 uM by KINOMEscan assay relative to control
# [12] = target: Dual specificity mitogen-activated protein kinase kinase; MEK1/2 (Homo sapiens) (UniProt P36507+Q02750); assay: Inhibition of MEK (unknown origin) at 1 uM by KINOMEscan assay relative to control; format: protein assay
# [13] = system: Tyrosine-protein kinase ABL1 (Homo sapiens), P00519 [E255K]; assay: Inhibition of human ABL1 E255K mutant (S229 to K512 residues) expressed in mammalian expression system at 1 uM by KINOMEscan assay relative to control
# [14] = target: Tyrosine-protein kinase ABL1 (Homo sapiens) (UniProt P00519); assay: Inhibition of human ABL1 (S229 to K512 residues) expressed in mammalian expression system at 1 uM by KINOMEscan assay relative to control
# [15] = target: Proto-oncogene tyrosine-protein kinase receptor Ret (Homo sapiens) (UniProt P07949); assay: Inhibition of human RET (E713 to D1014 residues) expressed in bacterial expression system at 1 uM by KINOMEscan assay relative to control
# [16] = target: Dual specificity mitogen-activated protein kinase kinase 1 (Homo sapiens) (UniProt Q02750); assay: Inhibition of human MEK1 (M1 to V393 residues) expressed in mammalian expression system at 1 uM by KINOMEscan assay relative to control
# [17] = Protein binding in human plasma at […] after 5 hrs by LC-MS/MS analysis; format: ADME, cell-free; details: read-out: PPB (converted)
# [18] = Protein binding in mouse plasma at […] after 5 hrs by LC-MS/MS analysis; format: ADME, cell-free; details: read-out: PPB (converted)
# [19] = Cmax in CD-1 mouse at 5 mg/kg, po administered via gavage as single dose by LC-MS/MS analysis; format: ADME, organism-based; design: dose 5 mg/kg, route oral; details: in vivo
# [20] = AUClast in CD-1 mouse at 5 mg/kg, po administered via gavage as single dose by LC-MS/MS analysis; format: ADME, organism-based; design: dose 5 mg/kg, time 0 - last, route oral; details: in vivo
# [21] = Oral bioavailability in mouse at 50 mg/kg; format: ADME, organism-based; details: in vivo
# Sequence of MAP kinase-interacting serine/threonine-protein kinase 1 (Q9BUB5 whole entry): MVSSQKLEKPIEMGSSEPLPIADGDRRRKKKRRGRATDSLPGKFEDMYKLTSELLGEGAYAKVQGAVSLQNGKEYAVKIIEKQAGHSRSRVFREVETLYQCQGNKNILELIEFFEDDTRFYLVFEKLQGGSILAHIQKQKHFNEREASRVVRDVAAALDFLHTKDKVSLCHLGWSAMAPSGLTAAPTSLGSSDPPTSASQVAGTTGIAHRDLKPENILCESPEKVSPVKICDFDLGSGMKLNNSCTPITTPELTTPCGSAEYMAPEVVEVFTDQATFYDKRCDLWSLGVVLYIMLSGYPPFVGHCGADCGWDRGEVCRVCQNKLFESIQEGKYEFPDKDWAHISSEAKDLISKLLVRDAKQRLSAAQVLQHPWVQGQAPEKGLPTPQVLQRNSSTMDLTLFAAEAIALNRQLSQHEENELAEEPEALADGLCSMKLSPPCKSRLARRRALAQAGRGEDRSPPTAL
# Sequence of MAP kinase-interacting serine/threonine-protein kinase 2 (Q9HBH9 whole entry): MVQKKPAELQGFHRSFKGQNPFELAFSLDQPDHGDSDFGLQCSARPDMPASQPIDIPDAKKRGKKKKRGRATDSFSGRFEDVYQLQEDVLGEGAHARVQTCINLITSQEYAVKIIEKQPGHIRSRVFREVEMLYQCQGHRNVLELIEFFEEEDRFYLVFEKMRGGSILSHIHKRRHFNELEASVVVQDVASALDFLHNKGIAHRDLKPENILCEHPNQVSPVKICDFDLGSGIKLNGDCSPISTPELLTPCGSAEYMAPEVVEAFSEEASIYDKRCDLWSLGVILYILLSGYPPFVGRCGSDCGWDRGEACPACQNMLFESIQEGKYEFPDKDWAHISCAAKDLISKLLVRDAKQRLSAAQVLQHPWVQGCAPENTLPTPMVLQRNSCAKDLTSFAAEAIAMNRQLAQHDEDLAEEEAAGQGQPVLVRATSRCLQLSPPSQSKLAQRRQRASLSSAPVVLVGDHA
# Sequence of Cytochrome P450 3A4 (P08684 whole entry): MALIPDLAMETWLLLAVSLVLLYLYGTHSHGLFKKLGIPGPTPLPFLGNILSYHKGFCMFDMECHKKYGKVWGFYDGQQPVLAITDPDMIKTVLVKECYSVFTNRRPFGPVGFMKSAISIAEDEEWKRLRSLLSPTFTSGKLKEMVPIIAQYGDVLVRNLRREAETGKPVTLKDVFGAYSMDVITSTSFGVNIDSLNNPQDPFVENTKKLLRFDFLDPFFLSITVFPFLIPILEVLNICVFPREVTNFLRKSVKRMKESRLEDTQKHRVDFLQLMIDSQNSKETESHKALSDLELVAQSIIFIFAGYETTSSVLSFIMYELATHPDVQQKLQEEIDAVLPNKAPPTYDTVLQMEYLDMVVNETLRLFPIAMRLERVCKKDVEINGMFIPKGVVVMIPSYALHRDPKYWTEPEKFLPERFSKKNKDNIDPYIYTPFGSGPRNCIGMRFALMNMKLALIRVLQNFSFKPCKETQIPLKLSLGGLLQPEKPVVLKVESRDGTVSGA
# Sequence of Cytochrome P450 2D6 (P10635 whole entry): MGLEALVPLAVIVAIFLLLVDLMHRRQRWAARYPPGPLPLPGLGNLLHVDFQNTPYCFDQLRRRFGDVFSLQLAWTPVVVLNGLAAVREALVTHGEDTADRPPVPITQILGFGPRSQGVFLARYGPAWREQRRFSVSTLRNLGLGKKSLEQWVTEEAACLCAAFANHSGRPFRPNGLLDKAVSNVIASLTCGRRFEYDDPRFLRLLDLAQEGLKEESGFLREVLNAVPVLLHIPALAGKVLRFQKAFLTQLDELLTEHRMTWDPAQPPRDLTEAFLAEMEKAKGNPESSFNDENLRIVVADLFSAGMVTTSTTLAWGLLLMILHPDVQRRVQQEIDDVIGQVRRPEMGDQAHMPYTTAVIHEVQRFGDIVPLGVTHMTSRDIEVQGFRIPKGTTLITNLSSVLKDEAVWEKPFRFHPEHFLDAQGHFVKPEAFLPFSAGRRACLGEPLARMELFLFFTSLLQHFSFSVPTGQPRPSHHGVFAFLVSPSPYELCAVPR
# Sequence of Tyrosine-protein kinase ABL1 (Homo sapiens) (P00519 whole entry, the tested form may be a part): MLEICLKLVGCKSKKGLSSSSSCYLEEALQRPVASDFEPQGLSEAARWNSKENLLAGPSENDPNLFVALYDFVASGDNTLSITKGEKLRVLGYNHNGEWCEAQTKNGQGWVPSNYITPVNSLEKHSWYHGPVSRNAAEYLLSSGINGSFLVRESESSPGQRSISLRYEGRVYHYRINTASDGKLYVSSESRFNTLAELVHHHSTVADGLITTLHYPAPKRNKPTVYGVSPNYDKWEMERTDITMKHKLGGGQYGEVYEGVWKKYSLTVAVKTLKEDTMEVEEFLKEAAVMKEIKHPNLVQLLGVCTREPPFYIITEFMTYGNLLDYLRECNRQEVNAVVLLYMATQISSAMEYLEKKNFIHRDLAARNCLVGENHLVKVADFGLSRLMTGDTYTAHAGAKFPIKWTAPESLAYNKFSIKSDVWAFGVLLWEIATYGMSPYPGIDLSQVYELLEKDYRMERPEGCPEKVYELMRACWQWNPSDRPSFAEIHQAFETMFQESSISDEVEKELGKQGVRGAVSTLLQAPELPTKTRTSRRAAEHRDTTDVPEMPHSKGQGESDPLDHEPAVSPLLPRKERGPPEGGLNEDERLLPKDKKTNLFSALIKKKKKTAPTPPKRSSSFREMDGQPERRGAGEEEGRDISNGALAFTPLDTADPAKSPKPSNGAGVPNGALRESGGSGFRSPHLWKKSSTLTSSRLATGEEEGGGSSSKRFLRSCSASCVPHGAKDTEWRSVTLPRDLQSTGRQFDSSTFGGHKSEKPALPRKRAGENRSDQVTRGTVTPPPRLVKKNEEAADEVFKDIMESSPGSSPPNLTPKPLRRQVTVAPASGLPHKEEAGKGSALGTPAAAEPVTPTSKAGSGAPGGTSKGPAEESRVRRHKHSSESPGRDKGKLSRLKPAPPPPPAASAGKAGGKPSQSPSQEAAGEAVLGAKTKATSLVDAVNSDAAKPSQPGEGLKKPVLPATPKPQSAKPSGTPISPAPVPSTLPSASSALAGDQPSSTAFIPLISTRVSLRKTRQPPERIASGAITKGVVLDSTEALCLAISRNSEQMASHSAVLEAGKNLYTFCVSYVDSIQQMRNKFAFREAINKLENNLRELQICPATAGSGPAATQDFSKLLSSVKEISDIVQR
# Sequence of Dual specificity mitogen-activated protein kinase kinase 1 (Homo sapiens) (Q02750 whole entry, the tested form may be a part): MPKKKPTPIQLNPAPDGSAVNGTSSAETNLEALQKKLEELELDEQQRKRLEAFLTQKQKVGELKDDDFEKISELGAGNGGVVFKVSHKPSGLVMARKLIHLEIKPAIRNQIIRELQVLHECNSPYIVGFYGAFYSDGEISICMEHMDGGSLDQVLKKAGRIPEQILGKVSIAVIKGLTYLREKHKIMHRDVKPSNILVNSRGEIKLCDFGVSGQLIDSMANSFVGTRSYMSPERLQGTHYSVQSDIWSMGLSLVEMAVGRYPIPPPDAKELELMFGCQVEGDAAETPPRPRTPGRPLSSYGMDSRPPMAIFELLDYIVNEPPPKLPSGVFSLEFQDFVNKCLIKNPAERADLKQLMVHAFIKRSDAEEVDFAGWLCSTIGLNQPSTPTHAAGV
# Sequence of Proto-oncogene tyrosine-protein kinase receptor Ret (Homo sapiens) (P07949 whole entry, the tested form may be a part): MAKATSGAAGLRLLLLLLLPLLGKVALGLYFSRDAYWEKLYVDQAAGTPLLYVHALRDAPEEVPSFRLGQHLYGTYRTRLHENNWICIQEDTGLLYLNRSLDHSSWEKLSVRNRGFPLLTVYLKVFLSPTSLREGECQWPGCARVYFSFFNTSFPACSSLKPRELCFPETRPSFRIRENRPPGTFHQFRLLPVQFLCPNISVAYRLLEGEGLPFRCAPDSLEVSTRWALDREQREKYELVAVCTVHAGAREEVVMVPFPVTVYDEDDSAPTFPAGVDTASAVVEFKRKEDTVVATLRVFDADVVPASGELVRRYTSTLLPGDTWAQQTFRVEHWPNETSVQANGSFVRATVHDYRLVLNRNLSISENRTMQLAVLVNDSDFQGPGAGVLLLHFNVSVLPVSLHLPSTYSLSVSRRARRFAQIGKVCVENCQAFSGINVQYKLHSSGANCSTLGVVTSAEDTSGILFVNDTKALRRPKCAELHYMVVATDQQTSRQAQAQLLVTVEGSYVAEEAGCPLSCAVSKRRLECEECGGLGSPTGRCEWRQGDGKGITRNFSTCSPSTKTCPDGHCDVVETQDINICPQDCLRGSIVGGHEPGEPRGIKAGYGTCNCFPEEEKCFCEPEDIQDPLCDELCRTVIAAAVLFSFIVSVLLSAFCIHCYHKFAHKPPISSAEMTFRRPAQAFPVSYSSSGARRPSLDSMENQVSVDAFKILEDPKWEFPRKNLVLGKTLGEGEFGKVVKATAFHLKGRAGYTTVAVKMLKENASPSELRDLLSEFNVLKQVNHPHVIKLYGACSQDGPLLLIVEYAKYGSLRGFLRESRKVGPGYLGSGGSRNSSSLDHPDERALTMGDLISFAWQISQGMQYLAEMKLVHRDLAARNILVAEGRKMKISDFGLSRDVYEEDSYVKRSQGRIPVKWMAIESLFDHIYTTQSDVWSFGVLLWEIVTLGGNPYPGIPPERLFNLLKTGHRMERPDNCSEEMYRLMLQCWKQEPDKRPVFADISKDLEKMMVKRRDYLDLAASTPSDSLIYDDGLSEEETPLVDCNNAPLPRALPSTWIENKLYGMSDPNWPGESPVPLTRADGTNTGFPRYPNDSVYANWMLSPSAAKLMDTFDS
# Sequence of Dual specificity mitogen-activated protein kinase kinase 2 (Homo sapiens) (P36507 whole entry, the tested form may be a part): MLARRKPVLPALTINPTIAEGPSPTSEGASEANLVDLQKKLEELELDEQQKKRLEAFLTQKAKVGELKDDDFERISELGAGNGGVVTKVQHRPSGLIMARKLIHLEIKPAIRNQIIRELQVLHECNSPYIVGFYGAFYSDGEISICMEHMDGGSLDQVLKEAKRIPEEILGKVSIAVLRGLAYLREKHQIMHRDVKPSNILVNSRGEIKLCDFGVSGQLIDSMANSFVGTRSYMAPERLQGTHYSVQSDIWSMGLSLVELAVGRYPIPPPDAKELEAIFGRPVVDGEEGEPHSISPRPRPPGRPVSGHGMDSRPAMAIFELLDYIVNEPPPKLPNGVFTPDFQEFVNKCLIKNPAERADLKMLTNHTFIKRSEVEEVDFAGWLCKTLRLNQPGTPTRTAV
Papp A→B [1] [×10⁻⁶ cm/s],half-life at 1 µM (in vitro [2]) [min],logD [3],IC50 [4] [µM],IC50 (Cytochrome P450 2D6) [µM],IC50 [5] [µM],Papp [6] [×10⁻⁶ cm/s],IC50 [7] [µM],IC50 (Cytochrome P450 3A4) [µM],efflux ratio [8],solubility thermodynamic at 18 h [9] [µg/mL],half-life at 1 µM (in vitro [10]) [min],fraction unbound at 5 h [17],fraction unbound at 5 h [18],SMILES,also measured
1.14,> 60,0.73,0.143,> 20,0.238,64.7,0.64,> 20,7.57,> 45,> 60,–,–,CN(C)C1CCN(C(=O)c2ccc(-c3cn4c(-c5ccc(C#N)cc5)cnc4cn3)cc2)CC1,–
–,–,–,–,–,–,–,–,–,–,–,–,–,–,Nc1ncnc2[nH]nc(Nc3ccc(F)cc3)c12,inhibition [11]: > 99%; inhibition [12]: > 99%; inhibition [13]: > 99%; inhibition [14]: > 99%; inhibition [15]: > 99%; inhibition [16]: > 99%
5.43,20,2.48,0.072,> 20,0.084,81.9,0.229,3.9,4.84,137,11,0.003,0.0967,CN1CCN(C(=O)c2ccc(-c3ccc4ncc(-c5ccc(C#N)cc5)n4c3)cc2)CC1,–
3,47,2.19,0.011,–,0.009,75.3,0.431,–,13.3,148,> 60,–,–,CN(C)C1CCN(C(=O)c2ccc(-c3ccc4ncc(-c5ccc(C#N)cc5)n4n3)cc2)CC1,Cmax [19]: 69 ng/mL; AUC(0-t) [20]: 347 ng·h/mL
6.87,41,1.67,–,> 20,–,102,–,> 20,–,> 125,37,0.016,0.129,CN1CCN(C(=O)c2ccc(-c3cn4c(-c5ccc(C#N)cc5)cnc4cn3)cc2)CC1,bioavailability [21]: 48%
